Biological target: S1P1/EDG1 (Homo sapiens, UniProt P21453)
Experiment: S1P1 CRE-bla CHOK1 reporter assay, inhibition of Forskolin induced cAMP
Type: cell-based
Conditions: agonist activity range, S1P1 CRE-bla CHOK1, 2 μM Forskolin; read-out: S1P1 ACTIVITY
In short: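 Read-out is a FRET β-lactamase substrate (2 h, room temperature) after 4 h, 37 °C compound treatment under 2 μM Forskolin in stable S1P1-transfected CRE-bla CHO-K1 cells. Ten-point curves; non-linear regression gives EC50 for inhibition of Forskolin-stimulated cAMP.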

S1P1/EDG1, sequence (P21453 whole entry): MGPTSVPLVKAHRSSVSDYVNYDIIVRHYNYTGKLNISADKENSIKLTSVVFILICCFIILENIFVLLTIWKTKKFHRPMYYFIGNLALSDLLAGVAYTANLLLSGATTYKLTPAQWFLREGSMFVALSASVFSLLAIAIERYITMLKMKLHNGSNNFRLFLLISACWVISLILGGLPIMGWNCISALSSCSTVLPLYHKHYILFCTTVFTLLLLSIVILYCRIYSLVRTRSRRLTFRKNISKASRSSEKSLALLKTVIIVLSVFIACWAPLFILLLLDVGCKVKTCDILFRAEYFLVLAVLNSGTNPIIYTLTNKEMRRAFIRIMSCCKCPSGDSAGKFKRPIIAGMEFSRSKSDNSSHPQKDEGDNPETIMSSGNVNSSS

SMILES | EC50
CNS(=O)(=O)CCNC1CCc2c(-c3noc(-c4ccc(OC(C)C)c(C#N)c4)n3)cccc21 (racemic) [Compound 45, 2-((4-(5-(3-cyano-4-isopropoxyphenyl)-1,2,4-oxadiazol-3-yl)-2,3-dihydro-1H-inden-1-yl)amino)-N-methylethanesulfonamide] | 0.05 to 0.5 nM
CC(C)Oc1ccc(-c2nc(-c3cccc4c3CC[C@H]4NC(=O)N3CCC(O)CC3)no2)cc1C#N [Compound 240] | 0.5 to 5 nM
CC(C)Oc1ccc(-c2nc(-c3cccc4c3CC[C@H]4N3CC(C(=O)O)C3)no2)cc1C#N [Compound 202, (R)-1-(4-(5-(3-cyano-4-isopropoxyphenyl)-1,2,4-oxadiazol-3-yl)-2,3-dihydro-1H-inden-1-yl)azetidine-3-carboxylic acid] | < 0.05 nM
COC(=O)CC1CCN(C(=O)N[C@H]2CCc3c(-c4noc(-c5ccc(OC(C)C)c(C#N)c5)n4)cccc32)CC1 [Compound 226] | 0.05 to 0.5 nM
CC(C)Oc1cc(C#N)cc(-c2nc(-c3cccc4c3CCC4N)no2)c1 (stereo in doubt) [Compound 97, (R)-3-(3-(1-amino-2,3-dihydro-1H-inden-4-yl)-1,2,4-oxadiazol-5-yl)-5-isopropoxy benzo-nitrile] | > 5 nM
CC(C)Oc1ccc(-c2nc(-c3cccc4c3CC[C@H]4NC(=O)N3CCC(C(=O)O)CC3)no2)cc1C#N [Compound 238] | 0.05 to 0.5 nM
CC(C)Oc1ccc(-c2nc(-c3cccc4c3CC[C@@H]4NS(C)(=O)=O)no2)cc1C#N [Compound 69, (S)-N-(4-(5-(3 cyano-4-isopropoxyphenyl)-1,2,4-oxadiazol-3-yl)-2,3-dihydro-1H-inden-1-yl)methanesulfonamide] | < 0.05 nM
CC(C)Oc1ccc(-c2nc(-c3cccc4c3CC[C@@H]4NC(=O)N3CC[C@@H](O)C3)no2)cc1C#N [Compound 232] | 0.05 to 0.5 nM
CC(C)Oc1ccc(-c2nc(-c3cccc4c3CC[C@@H]4NCCCC(=O)O)no2)cc1C#N [Compound 146] | < 0.05 nM
CCOc1ccc(-c2nc(-c3cccc4c3CC[C@H]4O)no2)cc1OCC [Compound 1] | 0.05 to 0.5 nM
CNCCNC1CCc2c(-c3noc(-c4ccc(OC(C)C)c(C#N)c4)n3)cccc21 (racemic) [Compound 27] | 0.5 to 5 nM
CC(C)Oc1ccc(-c2nc(-c3cccc4c3CC[C@@H]4NS(=O)(=O)CCC3CCC3)no2)cc1C#N [Compound 168] | 0.05 to 0.5 nM
CC(C)Oc1ccc(-c2nc(-c3cccc4c3CC[C@H]4NCC(=O)N3CC[C@H](O)C3)no2)cc1C#N [Compound 134] | 0.05 to 0.5 nM
COC(=O)C(C)(C)CS(=O)(=O)N[C@H]1CCc2c(-c3noc(-c4ccc(OC(C)C)c(C#N)c4)n3)cccc21 [Compound 183] | 0.5 to 5 nM
COC(=O)C1CCN(C(=O)N[C@H]2CCc3c(-c4noc(-c5ccc(OC(C)C)c(C#N)c5)n4)cccc32)CC1 [Compound 237] | 0.05 to 0.5 nM
CC(C)CS(=O)(=O)N[C@@H]1CCc2c(-c3noc(-c4ccc(OC(C)C)c(C#N)c4)n3)cccc21 [Compound 76] | 0.5 to 5 nM
CCN[C@H]1CCc2c(-c3noc(-c4ccc(OC(C)C)c(C#N)c4)n3)cccc21 [Compound 107] | 0.05 to 0.5 nM
CC(C)Oc1ccc(-c2nc(-c3cccc4c3CCC4NS(=O)(=O)CCN(C)C)no2)cc1C#N (stereo in doubt) [Compound 77] | 0.05 to 0.5 nM
COC(=O)CCCN[C@H]1CCc2c(-c3noc(-c4ccc(OC(C)C)c(C#N)c4)n3)cccc21 [Compound 145] | < 0.05 nM
CC(=O)O[C@@H]1CCc2c(-c3noc(-c4ccc(OC(C)C)c(C#N)c4)n3)cccc21 [Compound 13, (R)-4-(5-(3-cyano-4-isopropoxyphenyl)-1,2,4-oxadiazol-3-yl)-2,3-dihydro-1H-inden-1-yl acetate] | 0.5 to 5 nM
CC(C)Oc1ccc(-c2nc(-c3cccc4c3CC[C@@H]4NC(=O)CN(C)C)no2)cc1C#N [Compound 136] | 0.05 to 0.5 nM
CC(C)Oc1ccc(-c2nc(-c3cccc4c3CC[C@@H]4NC(=O)N3CCOCC3)no2)cc1C#N [Compound 212] | 0.05 to 0.5 nM
CC(C)Oc1ccc(-c2nc(-c3cccc4c3CC[C@@H]4N3CC(C(=O)O)C3)no2)cc1C#N [Compound 203] | 0.05 to 0.5 nM
CC(C)Oc1ccc(-c2nc(-c3cccc4c3CC[C@H]4OC(=O)C(C)(C)C)no2)cc1C#N [Compound 14, (R)-4-(5-(3-cyano-4-isopropoxyphenyl)-1,2,4-oxadiazol-3-yl)-2,3-dihydro-1H-inden-1-yl pivalate] | > 5 nM
CC(C)Oc1ccc(-c2nc(-c3cccc4c3CC[C@@H]4N[C@H](C)CO)no2)cc1C#N [Compound 55, 5-(3-((S)-1-(((R)-1-hydroxypropan-2-yl)amino)-2,3-dihydro-1H-inden-4-yl)-1,2,4-oxadiazol-5-yl)-2-isopropoxybenzonitrile] | 0.05 to 0.5 nM
COC(=O)C1CCN(C(=O)N[C@@H]2CCc3c(-c4noc(-c5ccc(OC(C)C)c(C#N)c5)n4)cccc32)CC1 [Compound 236] | 0.05 to 0.5 nM
CC(C)Oc1ccc(-c2nc(-c3cccc4c3CC[C@@H]4NCCF)no2)cc1C#N [Compound 142] | 0.05 to 0.5 nM

SMILES | EC50
CC(C)Oc1ccc(-c2nc(-c3cccc4c3CCC4NC3CCCCC3)no2)cc1C#N (racemic) [Compound 22] | > 5 nM
Cc1c[nH]c(CN[C@H]2CCc3c(-c4noc(-c5ccc(OC(C)C)c(C#N)c5)n4)cccc32)n1 [Compound 159] | 0.5 to 5 nM
CC(C)Oc1ccc(-c2nc(-c3cccc4c3CC[C@@H]4NC(=O)N3CCC(O)CC3)no2)cc1C#N [Compound 241] | 0.05 to 0.5 nM
CNC(=O)CN[C@@H]1CCc2c(-c3noc(-c4ccc(OC(C)C)c(C#N)c4)n3)cccc21 [Compound 52] | 0.05 to 0.5 nM
CC(C)Oc1ccc(-c2nc(-c3cccc4c3CC[C@@H]4NC(=O)N3CCC(CO)CC3)no2)cc1C#N [Compound 218] | 0.05 to 0.5 nM
N#Cc1cc(-c2nc(-c3cccc4c3CC[C@H]4N)no2)ccc1OCC1CC1 [Compound 100, (R)-5-(3-(1-amino-2,3-dihydro-1H-inden-4-yl)-1,2,4-oxadiazol-5-yl)-2-(cyclopropylmethoxy)benzonitrile] | 0.5 to 5 nM
CC(C)Oc1ccc(-c2nc(-c3cccc4c3CC[C@@H]4NS(N)(=O)=O)no2)cc1C#N [Compound 249] | < 0.05 nM
CC(C)Oc1ccc(-c2nc(-c3cccc4c3CC[C@H]4N[C@H](C)c3ccccc3)no2)cc1C#N [Compound 251] | > 5 nM
CC(C)Oc1ccc(-c2nc(-c3cccc4c3CC[C@@H]4NS(=O)(=O)CCN3CCC3)no2)cc1C#N [Compound 169] | 0.5 to 5 nM
CC(C)Oc1cc(-c2nc(-c3cccc4c3CC[C@H]4N)no2)ccc1C#N [Compound 98, (R)-4-(3-(1-amino-2,3-dihydro-1H-inden-4-yl)-1,2,4-oxadiazol-5-yl)-2-isopropoxy benzonitrile] | > 5 nM
CC(C)Oc1ccc(-c2nc(-c3cccc4c3CC[C@@H]4NS(=O)(=O)CC(=O)N3CCC3)no2)cc1C#N [Compound 200] | < 0.05 nM
CC(C)Oc1ccc(-c2nc(-c3cccc4c3CC[C@H]4NC(C)C(=O)N(C)C)no2)cc1C#N (mixture of isomers) [Compound 58] | 0.5 to 5 nM
CC(C)Oc1ccc(-c2nc(-c3cccc4c3CC[C@@H]4NCCS(C)(=O)=O)no2)cc1C#N [Compound 126] | 0.05 to 0.5 nM
CCN(CCO)[C@@H]1CCc2c(-c3noc(-c4ccc(OC(C)C)c(C#N)c4)n3)cccc21 [Compound 114] | 0.05 to 0.5 nM
CC(C)Oc1ccc(-c2nc(-c3cccc4c3CC[C@@H]4NC(=O)N3CCNCC3)no2)cc1C#N [Compound 214] | 0.05 to 0.5 nM
CC(C)Oc1ccc(-c2nc(-c3cccc4c3CC[C@H]4NC(=O)CN3CCCC3)no2)cc1C#N [Compound 68] | 0.5 to 5 nM
COC(=O)N[C@H]1CCc2c(-c3noc(-c4ccc(OC(C)C)c(C#N)c4)n3)cccc21 [Compound 150] | 0.05 to 0.5 nM
CCN(CC)CCNC1CCc2c(-c3noc(-c4ccc(OC(C)C)c(C#N)c4)n3)cccc21 (racemic) [Compound 28] | 0.5 to 5 nM
CC(C)COc1ccc(-c2nc(-c3cccc4c3CCC4NCCO)no2)cc1C#N (racemic) [Compound 103, 5-(3-(1-((2-hydroxyethyl)amino)-2,3-dihydro-1H-inden-4-yl)-1,2,4-oxadiazol-5-yl)-2-isobutoxybenzonitrile] | 0.5 to 5 nM
CN[C@H]1CCc2c(-c3noc(-c4ccc(OC(C)C)c(C#N)c4)n3)cccc21 [Compound 105] | 0.05 to 0.5 nM
CC(C)Oc1ccc(-c2nc(-c3cccc4c3CCC4N3CCC(O)CC3)no2)cc1C#N (racemic) [Compound 16, 5-(3-(1-(4-hydroxypiperidin-1-yl)-2,3-dihydro-1H-inden-4-yl)-1,2,4-oxadiazol-5-yl)-2-isopropoxybenzonitrile] | 0.05 to 0.5 nM
CC(C)Oc1ccc(-c2nc(-c3cccc4c3CC[C@H]4N[C@H](C)C(=O)O)no2)cc1C#N [Compound 63] | < 0.05 nM
CC(C)Oc1ccc(-c2nc(-c3cccc4c3CC[C@H]4NCC(=O)N3CCCCC3)no2)cc1C#N [Compound 130] | 0.5 to 5 nM
CC(C)Oc1ccc(-c2nc(-c3cccc4c3CC[C@H]4NC(=O)N3CCC(CC(=O)O)CC3)no2)cc1C#N [Compound 228] | 0.5 to 5 nM
CC(C)Oc1ccc(-c2nc(-c3cccc4c3CC[C@H]4NC(=O)N3CCC[C@H](O)C3)no2)cc1C#N [Compound 215] | 0.5 to 5 nM
CC(C)Oc1ccc(-c2nc(-c3cccc4c3CC[C@H]4O)no2)cc1C#N [Compound 5, (R)-5-(3-(1-hydroxy-2,3-dihydro-1H-inden-4-yl)-1,2,4-oxadiazol-5-yl)-2-isopropoxybenzonitrile] | < 0.05 nM

Source: patent publication US9388147B2 (Receptos, Inc., priority 2009, dated 2016)
